Assay results: ChEMBL document CHEMBL5465560, “Selectivity Literature for EUbOPEN Chemogenomic Library” (2024)

Legend:
[1] = molecular target: T1, Serine/threonine-protein kinase Nek2 (Homo sapiens) (UniProt P51955); details: at 10 µM
T1 sequence (whole entry): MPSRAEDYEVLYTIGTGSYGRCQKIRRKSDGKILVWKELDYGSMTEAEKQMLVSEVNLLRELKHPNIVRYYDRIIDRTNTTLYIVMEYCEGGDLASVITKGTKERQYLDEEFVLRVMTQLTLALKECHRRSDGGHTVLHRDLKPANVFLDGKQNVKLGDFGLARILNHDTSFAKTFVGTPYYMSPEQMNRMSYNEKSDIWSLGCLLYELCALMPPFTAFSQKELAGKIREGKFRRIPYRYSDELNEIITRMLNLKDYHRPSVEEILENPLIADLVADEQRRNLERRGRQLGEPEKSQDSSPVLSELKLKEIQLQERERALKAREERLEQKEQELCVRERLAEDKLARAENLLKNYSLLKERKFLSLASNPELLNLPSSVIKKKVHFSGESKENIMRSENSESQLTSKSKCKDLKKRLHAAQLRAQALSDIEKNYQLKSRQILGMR

[2] = molecular target: DNA (cytosine-5)-methyltransferase 3B (Homo sapiens) (UniProt Q9UBC3); assay: Selectivity interaction (Methyltransferase screen (Scintillation proximity assays)) EUB0000255b DNMT3B
[3] = molecular target: T2, Serine/threonine-protein kinase MAK (Homo sapiens) (UniProt P20794); assay: Selectivity interaction (KinomeScan (DiscoverX)) EUB0000655a MAK; details: at 10 µM
T2 sequence (whole entry): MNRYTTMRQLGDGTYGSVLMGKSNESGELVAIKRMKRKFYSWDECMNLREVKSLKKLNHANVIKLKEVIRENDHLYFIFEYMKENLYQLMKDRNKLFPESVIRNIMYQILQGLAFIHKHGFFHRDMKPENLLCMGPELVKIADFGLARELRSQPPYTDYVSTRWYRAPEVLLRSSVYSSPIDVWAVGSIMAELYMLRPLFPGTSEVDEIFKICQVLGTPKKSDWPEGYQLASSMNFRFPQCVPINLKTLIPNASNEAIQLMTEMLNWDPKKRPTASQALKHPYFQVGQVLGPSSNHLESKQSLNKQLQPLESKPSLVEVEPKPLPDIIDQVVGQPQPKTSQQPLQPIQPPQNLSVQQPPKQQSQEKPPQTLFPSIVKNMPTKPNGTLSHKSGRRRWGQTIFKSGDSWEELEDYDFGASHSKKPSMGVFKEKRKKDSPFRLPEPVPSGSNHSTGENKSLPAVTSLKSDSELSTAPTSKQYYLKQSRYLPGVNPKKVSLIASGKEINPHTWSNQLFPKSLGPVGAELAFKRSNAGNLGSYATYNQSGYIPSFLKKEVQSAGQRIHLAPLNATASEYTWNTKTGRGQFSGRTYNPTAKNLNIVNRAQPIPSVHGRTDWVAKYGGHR

[4] = molecular target: T3, Cytoplasmic tyrosine-protein kinase BMX (Homo sapiens) (UniProt P51813); assay: Selectivity interaction (KinomeScan (DiscoverX)) EUB0001079a BMX; details: at 1 µM
T3 sequence (whole entry): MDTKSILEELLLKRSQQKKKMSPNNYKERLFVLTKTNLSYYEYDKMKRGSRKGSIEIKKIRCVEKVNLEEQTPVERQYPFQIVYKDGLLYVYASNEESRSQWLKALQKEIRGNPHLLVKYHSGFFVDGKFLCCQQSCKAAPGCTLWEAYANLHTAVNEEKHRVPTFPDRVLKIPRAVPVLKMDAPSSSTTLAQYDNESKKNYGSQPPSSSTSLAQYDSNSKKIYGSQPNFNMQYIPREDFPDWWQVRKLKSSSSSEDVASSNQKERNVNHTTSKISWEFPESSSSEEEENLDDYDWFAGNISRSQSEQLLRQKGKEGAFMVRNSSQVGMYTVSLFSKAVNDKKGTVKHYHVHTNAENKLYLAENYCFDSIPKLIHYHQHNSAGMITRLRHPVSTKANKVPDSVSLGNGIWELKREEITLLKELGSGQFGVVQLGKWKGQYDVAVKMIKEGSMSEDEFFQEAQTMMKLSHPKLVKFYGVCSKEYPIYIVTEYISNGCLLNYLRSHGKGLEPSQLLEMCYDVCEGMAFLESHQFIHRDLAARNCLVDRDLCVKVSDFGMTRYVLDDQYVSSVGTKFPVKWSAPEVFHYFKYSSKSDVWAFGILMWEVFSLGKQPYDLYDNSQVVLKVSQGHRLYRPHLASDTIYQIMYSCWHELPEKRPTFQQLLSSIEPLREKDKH

[5] = molecular target: T4, Mitogen-activated protein kinase 13 (Homo sapiens) (UniProt O15264); assay: Selectivity interaction (Kinase panel (KiNativ target engagement assay in Jurkat cells)) EUB0001635a MAPK13; assay type: cell-based; details: Selectivity number of off-targets 0.0, Selectivity number of targets 233.0, Source Knowledge https://www.sciencedirect.com/science/article/pii/S2451945619300674?via%3Dihub, at 1 µM
T4 sequence (whole entry): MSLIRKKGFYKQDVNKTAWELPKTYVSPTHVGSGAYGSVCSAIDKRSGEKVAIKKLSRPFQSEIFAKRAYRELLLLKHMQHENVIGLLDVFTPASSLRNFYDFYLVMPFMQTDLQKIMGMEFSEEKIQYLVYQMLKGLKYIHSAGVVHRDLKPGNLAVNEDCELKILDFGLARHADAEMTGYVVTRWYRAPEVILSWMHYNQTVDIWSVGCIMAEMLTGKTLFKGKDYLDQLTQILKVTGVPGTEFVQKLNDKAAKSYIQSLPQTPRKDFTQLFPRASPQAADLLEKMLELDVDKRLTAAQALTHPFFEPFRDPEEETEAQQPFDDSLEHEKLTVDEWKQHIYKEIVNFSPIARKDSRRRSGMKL

[6] = molecular target: T5, Megakaryocyte-associated tyrosine-protein kinase (Homo sapiens) (UniProt P42679); assay: Selectivity interaction (KinomeScan (DiscoverX)) EUB0000092b MATK; details: at 10 µM
T5 sequence (whole entry): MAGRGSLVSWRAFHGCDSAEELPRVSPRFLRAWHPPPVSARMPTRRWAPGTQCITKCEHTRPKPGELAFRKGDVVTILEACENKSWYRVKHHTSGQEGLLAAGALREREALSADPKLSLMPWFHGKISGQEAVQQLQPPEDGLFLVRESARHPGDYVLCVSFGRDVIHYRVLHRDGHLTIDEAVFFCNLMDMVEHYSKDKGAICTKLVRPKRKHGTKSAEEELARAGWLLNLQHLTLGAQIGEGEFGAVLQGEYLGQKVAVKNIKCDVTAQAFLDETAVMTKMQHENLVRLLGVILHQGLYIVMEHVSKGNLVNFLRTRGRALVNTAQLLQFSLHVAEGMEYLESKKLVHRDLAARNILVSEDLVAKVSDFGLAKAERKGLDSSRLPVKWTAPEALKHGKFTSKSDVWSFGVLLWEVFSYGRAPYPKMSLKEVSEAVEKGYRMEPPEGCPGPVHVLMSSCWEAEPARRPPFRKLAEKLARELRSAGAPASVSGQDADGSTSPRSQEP

[7] = molecular target: Tyrosine-protein kinase ABL1 (Homo sapiens, UniProt P00519); assay: Selectivity interaction (Kinase screening (Nanosyn)) EUB0000604a ABL1
Tyrosine-protein kinase ABL1, sequence (P00519 whole entry): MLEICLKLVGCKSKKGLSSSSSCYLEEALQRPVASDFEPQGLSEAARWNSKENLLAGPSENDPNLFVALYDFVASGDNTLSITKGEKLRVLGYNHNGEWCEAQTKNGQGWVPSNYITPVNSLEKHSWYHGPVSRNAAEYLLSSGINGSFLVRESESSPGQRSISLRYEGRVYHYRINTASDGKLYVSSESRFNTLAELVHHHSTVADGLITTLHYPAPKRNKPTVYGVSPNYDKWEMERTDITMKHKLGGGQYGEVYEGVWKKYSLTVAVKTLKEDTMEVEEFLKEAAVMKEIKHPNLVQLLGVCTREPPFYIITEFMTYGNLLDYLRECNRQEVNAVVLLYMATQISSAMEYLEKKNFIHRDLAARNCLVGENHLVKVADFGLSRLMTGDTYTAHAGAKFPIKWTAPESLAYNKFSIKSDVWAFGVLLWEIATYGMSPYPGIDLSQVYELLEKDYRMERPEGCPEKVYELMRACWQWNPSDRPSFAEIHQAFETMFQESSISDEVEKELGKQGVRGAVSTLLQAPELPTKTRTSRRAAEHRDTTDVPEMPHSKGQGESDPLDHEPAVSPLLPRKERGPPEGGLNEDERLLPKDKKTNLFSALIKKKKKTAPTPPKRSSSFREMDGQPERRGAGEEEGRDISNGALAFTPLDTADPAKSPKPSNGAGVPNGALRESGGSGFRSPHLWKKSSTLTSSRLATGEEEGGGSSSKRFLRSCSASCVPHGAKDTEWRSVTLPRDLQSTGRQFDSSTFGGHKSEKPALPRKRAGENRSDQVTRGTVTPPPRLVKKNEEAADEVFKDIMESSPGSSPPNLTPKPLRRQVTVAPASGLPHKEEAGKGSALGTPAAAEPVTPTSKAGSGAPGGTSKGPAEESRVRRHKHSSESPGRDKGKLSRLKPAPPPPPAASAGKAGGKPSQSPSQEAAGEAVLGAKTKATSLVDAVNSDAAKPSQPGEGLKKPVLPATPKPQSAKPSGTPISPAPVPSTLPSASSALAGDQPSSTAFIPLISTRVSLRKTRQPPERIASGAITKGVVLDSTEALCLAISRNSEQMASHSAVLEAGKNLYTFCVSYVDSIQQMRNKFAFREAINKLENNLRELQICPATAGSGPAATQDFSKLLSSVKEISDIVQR

**Q.** `CCN(CC)CCCCNc1ncc2cc(-c3cc(OC)cc(OC)c3)c(NC(=O)NC(C)(C)C)nc2n1` was tested. Which % of control [1] did it give?
**A.** The % of control was 100%.

**Q.** For `COCCN1CCC(c2cc(CN(C)C(=O)c3cccc(Oc4ccccc4)c3)ccn2)CC1`, which % activity ([2]; at 1 µM) is on record?
**A.** Its % activity is over 95%.

**Q.** What about the % activity ([2]; at 10 µM) of the same molecule?
**A.** The % activity was over 85%.

**Q.** With `CN(C)CCOc1ccc(-c2nc(-c3ccncc3)c(-c3ccc4c(c3)CC/C4=N\O)[nH]2)cc1` as the molecule, how does the % of control [3] read?
**A.** Its % of control is 100%.

**Q.** With `Nc1cnc(N2CCc3cc(S(=O)(=O)Nc4c(F)cc(Cl)cc4F)cc(N4CCCC4=O)c32)nc1` [TP-020n] as the molecule, how does the % of control [4] read?
**A.** Its % of control is 100%.

**Q.** With `C=CC(=O)Nc1ccc(C(=O)Nc2[nH]nc3c2CN(C(=O)N[C@H](CN(C)C)c2ccccc2)C3(C)C)cc1` as the molecule, how does the % of engagement [5] read?
**A.** Its % of engagement is -10.3%.

**Q.** Which % of control [6] does the source give for `CCC(=O)N1CCN(c2ccc(-n3c(=O)ccc4cnc5ccc(-c6cnc7ccccc7c6)cc5c43)cc2C(F)(F)F)CC1` here?
**A.** The % of control was 97%.

**Q.** For `Cc1cnc(Nc2ccc(F)cc2Cl)nc1-c1c[nH]c(C(=O)N[C@H](CO)c2cccc(Cl)c2)c1`, which % of inhibition [7] is on record?
**A.** The % of inhibition was 3%.
